Experimental data published in patent US8232401B2 (Japan Tobacco Inc., priority 2002, dated 2012).

Legend:
HIV integrase = molecular target: T1, HIV integrase (Human immunodeficiency virus type 1 group M subtype B, UniProt P12497, F1332H); test: Determination of enzyme (HIV integrase) inhibitory activity (strand transfer, microtiter plate, absorbance at 450 nm); type: biochemical, HIV (Human Immunodeficiency Virus (type 1)); details: recombinant HIV integrase (F185H) expressed in E. coli; donor DNA on streptavidin plate, digoxigenin target DNA; 37° C.
T1 construct: HIV integrase full length gene; made in house; host or cells: Escherichia coli BL21(DE3)

Row | SMILES | IC50 (HIV integrase) | melting point
1 | O=C(O)c1cn(CCO)c2ccc(Cc3cccc(Cl)c3Cl)cc2c1=O [Example 1-1, 6-(2,3-dichlorobenzyl)-1,4-dihydro-1-(2-hydroxyethyl)-4-oxo-3-quinolinecarboxylic acid] | 29 nM | 247 to 249 °C
2 | CC(C)n1cc(C(=O)O)c(=O)c2cc(Cc3cccc(Cl)c3Cl)ccc21 [Example 1-8, 6-(2,3-Dichlorobenzyl)-1-isopropyl-4-oxo-1,4-dihydroquinoline-3-carboxylic acid] | 46 nM | –
3 | CC(C)Oc1cc(Cc2cccc(Cl)c2F)cc2c(=O)c(C(=O)O)cn([C@@H](C)CO)c12 [Example 4-16, (S)-6-(3-Chloro-2-fluorobenzyl)-1-(2-hydroxy-1-methylethyl)-8-isopropyloxy-4-oxo-1,4-dihydroquinoline-3-carboxylic acid] | 7.1 nM | –
4 | O=C(O)c1cn(CCO)c2ccc(Cc3cccc(Cl)c3Cl)cc2c1=O [Example 1-63] | 20 nM | –
5 | CS(=O)(=O)Cn1cc(C(=O)O)c(=O)c2cc(Cc3cccc(Cl)c3Cl)ccc21 [Example 1-69, 6-(2,3-Dichlorobenzyl)-1-methanesulfonylmethyl-4-oxo-1,4-dihydroquinoline-3-carboxylic acid] | 74 nM | –
6 | O=C(O)c1cn(CC2CCCCC2)c2ccc(Cc3cccc(Cl)c3Cl)cc2c1=O [Example 1-42, 1-Cyclohexylmethyl-6-(2,3-dichlorobenzyl)-4-oxo-1,4-dihydroquinoline-3-carboxylic acid] | 130 nM | –
7 | CCOc1cc2c(cc1Cc1cccc(Cl)c1F)c(=O)c(C(=O)O)cn2CCO [Example 3-44, 6-(3-Chloro-2-fluorobenzyl)-7-ethoxy-1-(2-hydroxyethyl)-4-oxo-1,4-dihydroquinoline-3-carboxylic acid] | 9.6 nM | –
8 | CCC[C@@H](CO)n1cc(C(=O)O)c(=O)c2cc(Cc3cccc(Cl)c3F)c(OCC)cc21 [Example 4-36, (S)-6-(3-Chloro-2-fluorobenzyl)-7-ethoxy-1-[1-(hydroxymethyl)butyl]-4-oxo-1,4-dihydroquinoline-3-carboxylic acid] | 3.7 nM | –
9 | COc1cc2c(cc1Cc1cccc(Cl)c1F)c(=O)c(C(=O)O)cn2[C@H](CO)C1CCCCC1 [Example 4-42, (S)-6-(3-Chloro-2-fluorobenzyl)-1-(1-cyclohexyl-2-hydroxyethyl)-7-methoxy-4-oxo-1,4-dihydroquinoline-3-carboxylic acid] | 2.3 nM | –
10 | O=C(O)c1cn(CC2CCCC2)c2ccc(Cc3cccc(Cl)c3Cl)cc2c1=O [Example 1-40, 1-Cyclopentylmethyl-6-(2,3-dichlorobenzyl)-4-oxo-1,4-dihydroquinoline-3-carboxylic acid] | 110 nM | –
11 | CN(n1cc(C(=O)O)c(=O)c2cc(Cc3cccc(Cl)c3Cl)ccc21)S(C)(=O)=O [Example 2-5, 6-(2,3-Dichlorobenzyl)-1-(N-methanesulfonyl-N-methylamino)-4-oxo-1,4-dihydroquinoline-3-carboxylic acid] | 300 nM | –
12 | COC(=O)c1cn(CCO)c2ccc(Cc3cccc(Cl)c3Cl)cc2c1=O [Example 1-12, 6-(2,3-Dichlorobenzyl)-1-(2-hydroxyethyl)-4-oxo-1,4-dihydroquinoline-3-carboxylic acid methyl ester] | 710 nM | –
13 | O=C(O)c1cn(CCO)c2cc(F)c(Cc3cccc(Cl)c3Cl)cc2c1=O [Example 4-9, 6-(2,3-Dichlorobenzyl)-7-fluoro-1-(2-hydroxyethyl)-4-oxo-1,4-dihydroquinoline-3-carboxylic acid] | 21 nM | –
14 | CCC[C@@H](CO)n1cc(C(=O)O)c(=O)c2cc(Cc3cccc(Cl)c3F)cc(OCC)c21 [Example 4-48, (S)-6-(3-Chloro-2-fluorobenzyl)-8-ethoxy-1-[1-(hydroxymethyl)butyl]-4-oxo-1,4-dihydroquinoline-3-carboxylic acid] | 3 nM | –
15 | CN(C)n1cc(C(=O)O)c(=O)c2cc(Cc3cccc(Cl)c3Cl)ccc21 [Example 2-6, 6-(2,3-Dichlorobenzyl)-1-dimethylamino-4-oxo-1,4-dihydroquinoline-3-carboxylic acid] | 92 nM | –
16 | CC(C)Oc1cc2c(cc1Cc1cccc(Cl)c1F)c(=O)c(C(=O)O)cn2[C@@H](C)CO [Example 3-74] | 4.9 nM | –
17 | O=C(O)c1cn(C2CCCC2)c2ccc(Cc3cccc(Cl)c3Cl)cc2c1=O [Example 3-13, 1-Cyclopentyl-6-(2,3-dichlorobenzyl)-4-oxo-1,4-dihydroquinoline-3-carboxylic acid] | 29 nM | –
18 | O=C(O)c1cn(-c2ccccc2)c2ccc(Cc3cccc(Cl)c3Cl)cc2c1=O [Example 3-9, 6-(2,3-Dichlorobenzyl)-4-oxo-1-phenyl-1,4-dihydroquinoline-3-carboxylic acid] | 84 nM | –
19 | COc1cc(Cc2cccc(Cl)c2F)cc2c(=O)c(C(=O)O)cn(CCO)c12 [Example 3-34, 6-(3-Chloro-2-fluorobenzyl)-1-(2-hydroxyethyl)-8-methoxy-4-oxo-1,4-dihydroquinoline-3-carboxylic acid] | 11 nM | –
20 | O=C(O)c1cn(CCCO)c2ccc(Cc3cccc(Cl)c3Cl)cc2c1=O [Example 1-25, 6-(2,3-Dichlorobenzyl)-1-(3-hydroxypropyl)-4-oxo-1,4-dihydroquinoline-3-carboxylic acid] | 160 nM | –
21 | COC(=O)Nn1cc(C(=O)O)c(=O)c2cc(Cc3cccc(Cl)c3Cl)ccc21 [Example 2-2, 6-(2,3-Dichlorobenzyl)-1-methoxycarbonylamino-4-oxo-1,4-dihydroquinoline-3-carboxylic acid] | 180 nM | –
22 | CCOc1cc(Cc2cccc(Cl)c2F)cc2c(=O)c(C(=O)O)cn([C@@H](C)CO)c12 [Example 3-67, (S)-6-(3-Chloro-2-fluorobenzyl)-8-ethoxy-1-(2-hydroxy-1-methylethyl)-4-oxo-1,4-dihydroquinoline-3-carboxylic acid] | 6.4 nM | –
23 | CNS(=O)(=O)Cn1cc(C(=O)O)c(=O)c2cc(Cc3cccc(Cl)c3Cl)ccc21 [Example 1-71, 6-(2,3-Dichlorobenzyl)-1-methylsulfamoylmethyl-4-oxo-1,4-dihydroquinoline-3-carboxylic acid] | 13 nM | –
24 | COc1c(Cc2cccc(Cl)c2F)cc2c(=O)c(C(=O)O)cn(CCO)c2c1OC [Example 3-45, 6-(3-Chloro-2-fluorobenzyl)-7,8-dimethoxy-1-(2-hydroxyethyl)-4-oxo-1,4-dihydroquinoline-3-carboxylic acid] | 15 nM | –
25 | CC[C@@H](CO)n1cc(C(=O)O)c(=O)c2cc(Cc3cccc(Cl)c3F)c(OC(C)C)cc21 [Example 3-72, (S)-6-(3-Chloro-2-fluorobenzyl)-1-[1-(hydroxymethyl)propyl]-7-isopropyloxy-4-oxo-1,4-dihydroquinoline-3-carboxylic acid] | 3.8 nM | –
26 | CN(C)/C=N/c1cc2c(cc1Cc1cccc(Cl)c1F)c(=O)c(C(=O)O)cn2CCO [Example 3-50, 6-(3-Chloro-2-fluorobenzyl)-7-(dimethylaminomethyleneamino)-1-(2-hydroxyethyl)-4-oxo-1,4-dihydroquinoline-3-carboxylic acid] | 18 nM | –
